In US20150351390A1, “COMPOSITIONS AND METHODS FOR AUXIN-ANALOG CONJUGATION” (PIONEER HI-BRED INTERNATIONAL, INC., priority 2012, published 2015):

Tests used:
soybean seedlings = assay: Soybean seedling response to spot infiltrated auxins and conjugates; on 1st trifoliate leaf curl: key: 0 = no phenotype; +/− = threshold; on Chlorotic lesion @ app. Pnt: key: 0 = no phenotype; +/− = threshold; format: in vivo; parameters: 1st trifoliate leaf curl / Epinasty score: key: 0 = no phenotype; +/− = threshold; conditions: for 1st trifoliate leaf curl / Chlorotic lesion @ app. Pnt / Epinasty score: spot infiltration; for Plant response phenotype, soybean: 1, 2.5 and 5 mM, result in words
Protocol: Conjugate forms of auxinic compounds when applied through spot infiltration, a needleless method to introduce exogenous agents into plant cells. Initially, various concentrations of analytical grade (98%+pure) IAA, 2,4-D, and dicamba were prepared as solutions that were applied directly to uni-foliate leaves of 9 day old soybean seedlings by spot infiltration in order to determine the range of auxinic response and severity.
Spot infiltration comprises applying a compound to be tested in composition that is applied to the surface of a plant, for example, to a leaf or other plant structure. For example, a method for testing a plant response to one or more compounds using spot infiltration comprises a) providing a composition comprising one or more compounds to be tested in a container having at least an opening for the compound enter and/or exit, and one or more elements for moving the composition into or out of the container; b) contacting at least one opening of the container with the surface of a plant and moving the composition comprising one or more compounds to at least the surface of the plant. A container and elements for moving the composition may comprise a syringe body and plunger. Moving the composition to the plant surface comprises contacting the surface with pressure sufficient for the composition to enter the cells of the plant. In an aspect, spot filtration testing comprises measuring an effect of the composition on the contacted plant and comparing that measure or effect to a plant that is not contacted with the composition.
Plant response phenotypes were documented at one day post-spot infiltration and subsequently every other day, up to nine days post treatment. […] In the studies described herein below, 5 replicate treatments for each conjugate form were conducted, along with appropriate negative controls.
(§1) Examples 9 and 10 utilized a spot infiltration method for the delivery of an herbicide directly to leaves of a plant. The method generally allows for the directed delivery of a variety of agents to a localized area of a plant, e.g. localized region of leaves, for screening or assessment purposes, e.g. to quickly assess the response of a plant to the agent. As used in the foregoing examples, the spot infiltration method was used to introduce specific herbicides or specific conjugates of the herbicides to seedling plant leaves. Following introduction of the herbicide or the appropriate conjugate, plants were observed daily for nine days for characteristics of epinasty, trifoliate leaf curly, chlorosis, and new growth recovery.
(§2) Briefly, a solution of the desired agent is prepared of the desired agent, e.g. as described above in Example 10, solutions (5% EtOH) of 1, 2.5 and 5 mM IAA. The solution is then drawn into a 1 mL BD™ slip-tip syringe, bulk, non-sterile syringe (e.g. Becton, Dickinson and Company, Product No. 301025) with 100 μL markings. The desired volume is then applied to the leaf, e.g. as described in Examples 9 and 10, with the tip of the syring against the leaf and positive pressure applied to the syringe plunger. Sufficient pressure is applied in order to infuse the area beneath the syringe opening, but not so much pressure as to cause a visible-to-the-eye puncture or hole to form in the leaf. Some run-off of solution around the syringe opening is expected. In the foregoing examples, two spots were applied to each of two leaves per seedling for soybean plants. […] In soybean, both spots per leaf were at the distal portion of the leaf about 1-2 cm apart. When the method was applied to Arabidopsis, two developmentally intermediate aged leaves were chosen per plant, and one spot infiltration was carried out per leaf.

[1] = test system: Arabidopsis ecotype Col-0 plant; assay: Arabidopsis response to spot infiltrated auxins and conjugates; format: in vivo, Arabidopsis thaliana; conditions: result in words
Protocol: The effect of auxin conjugates was assessed using Arabidoposis (Arabidopsis thialiana) ecotype Col-0 plant. Prior to studies utilizing the auxin conjugates, levels of analytical grade (98%+pure) IAA, 2,4-D and dicamba in solution were applied at various concentrations directly to developmentally similar leaves of 20-23 day old Arabidopsis seedlings by needleless syringe spot infiltration methodology, in order to determine range of auxinic response and severity. Phenotypes were documented relative to control at 1 day post-spot infiltration and subsequently every other day, up to nine days post treatment. Three concentrations were chosen based on reproducibility, and conjugated forms were then studied with 4 or more replicate treatments for each, along with appropriate negative controls (H2O and 10% EtOH).
as §1, §2
Generally, for Arabidopsis, the two leaves were chosen from opposite sides of rosette. In general, the spot infiltration method is carried out on younger plants in order to minimize experimental footprint and to maintain developmental uniformity. However, the method is not limited to use on young plants and can be easily applied to older plants as determined by the goals of a particular experiment.

[2] = LC-MS assay of GH3 conjugation of IAA with Asp or Glu; format: biochemical; conditions: LC-MS; for Detected auxin conjugates: IAA-Asp: IAA with Asp; for Detected auxin conjugates: IAA-Glu: IAA with Glu
Method in brief: (§3)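 N-terminal His-tagged GH3 homologs, expressed in E. coli C41(DE3) and Ni-NTA purified, at 44 to 164 μg/mL incubated 3 h at 30 °C in 20 mM Tris-HCl pH 8.0, 5 mM MgCl2, 1 mM DTT, 5 mM ATP, 5 mM auxin (IAA, 2,4-D or dicamba) and 5 mM Asp or Glu. Conjugates quantified by LC-MS against standards after MeOH precipitation; kinetics from Michaelis-Menten fits of initial velocities.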

[3] = LC-MS assay of GH3 conjugation of 2,4-D with Asp or Glu; format: biochemical; conditions: LC-MS; for Detected auxin conjugates: 2,4-D-Asp: 2,4-D with Asp; for Detected auxin conjugates: 2,4-D-Glu: 2,4-D with Glu
Method in brief: as §3

[4] = LC-MS assay of GH3 conjugation of dicamba with Asp or Glu; format: biochemical; conditions: LC-MS; for Detected auxin conjugates: Dicamba-Asp: dicamba with Asp; for Detected auxin conjugates: Dicamba-Glu: dicamba with Glu
Method in brief: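 Dicamba–amino acid (Asp or Glu) conjugates formed by purified his-tagged GH3 enzymes were detected by LC-MS on an AB Sciex 4000 QTrap with Shimadzu Nexera UHPLC and a Phenomenex Luna 3 μm Phenyl-Hexyl column, after 20× dilution of the supernatant in water. Standards were used to quantify conjugates. Protein concentration was determined by Bradford assay.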

[5] = 1, 2.5 and 5 mM, all test levels

## O=C(O)Cc1c[nH]c2ccccc12 [IAA, indole-3-acetic acid]
Soybean seedlings; 1.0 mM
  1st trifoliate leaf curl: 0
  Chlorotic lesion @ app. Pnt: 0
Soybean seedlings; 2.5 mM
  1st trifoliate leaf curl: 0
  Chlorotic lesion @ app. Pnt: 0
Soybean seedlings; 5.0 mM
  1st trifoliate leaf curl: 0
  Chlorotic lesion @ app. Pnt: 0
Soybean seedlings
  Plant response phenotype, soybean: modest stem twisting and bending (epinasty)
[1]; 5 mM (high dose), 1-2 days post treatment
  Phenotype, Arabidopsis: modest petiole twisting (epinasty) and leaf curl

## O=C(O)C[C@H](NC(=O)Cc1c[nH]c2ccccc12)C(=O)O [IAA-Asp]
Soybean seedlings; 1.0 mM
  1st trifoliate leaf curl: 0
  Chlorotic lesion @ app. Pnt: 0
  Epinasty score: 0
Soybean seedlings; 2.5 mM
  1st trifoliate leaf curl: 0
  Chlorotic lesion @ app. Pnt: 0
  Epinasty score: 0
Soybean seedlings; 5.0 mM
  1st trifoliate leaf curl: 0
  Chlorotic lesion @ app. Pnt: 0
  Epinasty score: 0
Soybean seedlings
  Plant response phenotype, soybean: No discernable phenotype
[1]; [5]
  Phenotype, Arabidopsis: No discernable phenotype

## O=C(O)CC[C@H](NC(=O)Cc1c[nH]c2ccccc12)C(=O)O [IAA-Glu]
Soybean seedlings; 1.0 mM
  1st trifoliate leaf curl: 0
  Chlorotic lesion @ app. Pnt: 0
  Epinasty score: 0
Soybean seedlings; 2.5 mM
  1st trifoliate leaf curl: 0
  Chlorotic lesion @ app. Pnt: 0
  Epinasty score: 0
Soybean seedlings; 5.0 mM
  1st trifoliate leaf curl: 0
  Chlorotic lesion @ app. Pnt: 0
  Epinasty score: 0
Soybean seedlings
  Plant response phenotype, soybean: No discernable phenotype
[1]; [5]
  Phenotype, Arabidopsis: No discernable phenotype

B1: OsGH3-3: GH3 protein, accession EEE54131 (protein, listed as Oryza sativa)
chain: MLEKKATRSTRVDGVSGEAVIEEFERVTRDAANVQRETLRRILAENGGVEYLRGLGLAGATDPATFRARVPLATHADLEPYIDRIADGDASPVLTAKPATSISLSSGTTQGKRKYLLFNEELVKSTMQIYRISYAFRNREFPVENGKALQFIYSSRETRTKGGLTATTATTNVYRSEEFKATMRDIQSQCCSPDEVIFGPDFAQSLYCHLLAGLLAAGDVQIVSATFAHSVVLAFQTFERAWEDLCADIRRGEVSPSRVTSPAVRRAMAALLAAPNPGLADEVARKCAALSNWYGVIPALWPNARYVYGIMTGSMEHYVKKLRHYAGGLPLVAAEYGASEGWVGANVEPGTPPERATFTVLPDIAYFEFIPLKPVAGDGGYAEAEPVGLTEVAAGELYEVVMTTFAGLYRYRLGDVVKVAGFYNATPKLKFVCRRNLMLSINIDKNSEQDLQLAVDAAARAVLAGEKLEVVDYTSHADVSSDPGHYVVFLELNAADPAAVDGDVMQACCDELDRAFADAGYVGSRKSGAIAPLELRVLQRGTFQKVLRHYLSLGAPVSQFKSPRCVSRSNSGVLQILAGCTVNVFFSSAYD
[2]
  Detected auxin conjugates: IAA-Asp: Yes
  Detected auxin conjugates: IAA-Glu: No
[3]
  Detected auxin conjugates: 2,4-D-Asp: No
  Detected auxin conjugates: 2,4-D-Glu: No
[4]
  Detected auxin conjugates: Dicamba-Asp: No
  Detected auxin conjugates: Dicamba-Glu: No

B2: AtGH3-11: GH3 protein, accession AAD23040 (protein, listed as Arabidopsis thaliana)
chain: MLEKVETFDMNRVIDEFDEMTRNAHQVQKQTLKEILLKNQSAIYLQNCGLNGNATDPEEAFKSMVPLVTDVELEPYIKRMVDGDTSPILTGHPVPAISLSSGTSQGRPKFIPFTDELMENTLQLFRTAFAFRNRDFPIDDNGKALQFIFSSKQYISTGGVPVGTATTNVYRNPNFKAGMKSITSPSCSPDEVIFSPDVHQALYCHLLSGILFRDQVQYVFAVFAHGLVHAFRTFEQVWEEIVTDIKDGVLSNRITVPSVRTAMSKLLTPNPELAETIRTKCMSLSNWYGLIPALFPNAKYVYGIMTGSMEPYVPKLRHYAGDLPLVSHDYGSSEGWIAANVTPRLSPEEATFAVIPNLGYFEFLPVSETGEGEEKPVGLTQVKIGEEYEVVITNYAGLYRYRLGDVVKVIGFYNNTPQLKFICRRNLILSINIDKNTERDLQLSVESAAKRLSEEKIEVIDFSSYIDVSTDPGHYAIFWEISGETNEDVLQDCCNCLDRAFIDAGYVSSRKCKTIGALELRVVAKGTFRKIQEHFLGLGSSAGQFKMPRCVKPSNAKVLQILCENVVSSYFSTAF
[2]
  Detected auxin conjugates: IAA-Asp: No
  Detected auxin conjugates: IAA-Glu: No
[3]
  Detected auxin conjugates: 2,4-D-Asp: No
  Detected auxin conjugates: 2,4-D-Glu: No
[4]
  Detected auxin conjugates: Dicamba-Asp: No
  Detected auxin conjugates: Dicamba-Glu: No

B3: OsGH3-12: GH3 protein, accession Q53P49 (protein, listed as Oryza sativa)
chain: MLEKEGKLIMSREDEEIMAWFERTTRDAADVQRETLRRILAENAGVEYLRELGLAGLTDAGSFRARVPVVTHADLDPYIQRVADGDASPVLTAKPVTAISLSSGTTQGKRKRLLFNDDLLRSSIRFFHASYAFTNRAFPVEDGRVLQFMYGSRHETTKGGLTATTVMTNLLRSEEFTASMAARSRPRLPSCSPSEVVFSPDFDESLYCHLLCGLLLAGEVRAVSASFAHSIVVALQALERVWRELCADIRRGAASPARVTTPAVRRAVAPILAAPNPALADALERRCAALGDWSGVIPALWPNARYVQATMTGSMEHYVKKLRHYAGGVPLVSGNYASSEGVIGINAEQHAPPESVVFTVLPDAAYFEFIPLKPPCTDAAADDDNPAAAGSSCYVDADDANPVGLTDVVVGEHYEVVMTTFTGLYRYRLGDVVKVAGFHHATPKLRFVCRRSLILSINVDKNSEHDLQLAVDSAAKILAGDGENHKQLEIADYTSHADTSSDPGHYVVFWELNGGGEEDGGGVLQRCCDEMDRAFGADAGYAQSRKTCAIGALELRVLRRGAFQEVLRHYVAGGSSAGQFKMPRCVAPSNAGVLRVLKDNTINIFFSTAYDYD
[2]
  Detected auxin conjugates: IAA-Asp: No
  Detected auxin conjugates: IAA-Glu: No
[3]
  Detected auxin conjugates: 2,4-D-Asp: No
  Detected auxin conjugates: 2,4-D-Glu: No
[4]
  Detected auxin conjugates: Dicamba-Asp: No
  Detected auxin conjugates: Dicamba-Glu: No
